Assay results as given in the NIST ThermoML archive (doi:10.1021/je900715y).
± gives the expanded uncertainty stated by the source.

Assays:
[1] = 101.3 kPa, Liquid
[2] = xn = mol fraction of the nth substance listed; conditions: 101.3 kPa, Liquid, x2 = 0

With `CCC(C)O` (centres undefined) [butan-2-ol] the mass density ([1]; 288.15 K) was 810.689 ± 0.55 kg/m3, the mass density ([1]; 293.15 K) was 806.646 ± 0.56 kg/m3 and the mass density ([1]; 298.15 K) was 802.528 ± 0.56 kg/m3. It also gave a mass density ([1]; 303.15 K) of 798.326 ± 0.57 kg/m3, a mass density ([1]; 308.15 K) of 794.03 ± 0.57 kg/m3 and a mass density ([1]; 313.15 K) of 789.632 ± 0.58 kg/m3. It also gave a mass density ([1]; 318.15 K) of 785.117 ± 0.58 kg/m3 and a mass density ([1]; 323.15 K) of 780.515 ± 0.59 kg/m3.

With `CCCCCCC` [heptane] the mass density ([1]; 288.15 K) was 687.954 ± 0.64 kg/m3, the mass density ([1]; 293.15 K) was 683.733 ± 0.64 kg/m3 and the mass density ([1]; 298.15 K) was 679.494 ± 0.65 kg/m3. The mass density ([1]; 303.15 K) was 675.229 ± 0.66 kg/m3, the mass density ([1]; 308.15 K) was 670.941 ± 0.66 kg/m3 and the mass density ([1]; 313.15 K) was 666.621 ± 0.67 kg/m3. The mass density ([1]; 318.15 K) was 662.273 ± 0.68 kg/m3 and the mass density ([1]; 323.15 K) was 657.896 ± 0.68 kg/m3.

In the case of `CCCCCCC` [heptane] + CCC(C)O, the mass density ([2]; 288.15 K) is reported as 687.954 ± 0.64 kg/m3, the mass density ([2]; 293.15 K) is reported as 683.733 ± 0.64 kg/m3 and the mass density ([2]; 298.15 K) is reported as 679.494 ± 0.65 kg/m3. For the same compound, the mass density ([2]; 303.15 K) was 675.229 ± 0.66 kg/m3, the mass density ([2]; 308.15 K) was 670.941 ± 0.66 kg/m3 and the mass density ([2]; 313.15 K) was 666.621 ± 0.67 kg/m3. The mass density ([2]; 318.15 K) was 662.273 ± 0.68 kg/m3 and the mass density ([2]; 323.15 K) was 657.896 ± 0.68 kg/m3.
